Results published in ChEMBL document CHEMBL1143336, “Structure-activity relationship study on polyglutamine binding peptide QBP1” (Bioorg Med Chem, 2009).

Experiments:
[1] = Inhibition of thioredoxin-conjugated PolyQ-62 protein aggregation expressed in Escherichia coli DH5alpha at 20 uM relative to control
[2] = Inhibition of thioredoxin-conjugated PolyQ-62 protein aggregation expressed in Escherichia coli DH5alpha

inhibition [1] | IC50 [2] | Compound
65.3% | > 20 µM | CC[C@H](C)[C@H](NC(=O)CNC(=O)[C@@H]1CCCN1C(=O)[C@H](Cc1c[nH]c2ccccc12)NC(=O)[C@H](Cc1c[nH]c2ccccc12)NC(=O)[C@H](CCCCN)NC(=O)[C@H](Cc1c[nH]c2ccccc12)NC(=O)[C@H](CC(N)=O)NC(=O)[C@H](CO)NC(C)=O)C(=O)N[C@H](Cc1ccccc1)C(=O)N[C@@H](CC(=O)O)C(N)=O
78.2% | 8.5 µM | Ac-SNWAWWPGIFD-NH2
6.4% | – | CC[C@H](C)[C@H](NC(=O)CNC(=O)[C@@H]1CCCN1C(=O)[C@H](Cc1c[nH]c2ccccc12)NC(=O)[C@@H](Cc1c[nH]c2ccccc12)NC(=O)[C@H](CCCCN)NC(=O)[C@H](Cc1c[nH]c2ccccc12)NC(=O)[C@H](CC(N)=O)NC(=O)[C@H](CO)NC(C)=O)C(=O)N[C@@H](Cc1ccccc1)C(=O)N[C@@H](CC(=O)O)C(N)=O
-4% | – | Ac-SNAKWWPGIFD-NH2
9.9% | – | CC[C@H](C)[C@H](NC(=O)CNC(=O)[C@@H]1CCCN1C(=O)[C@H](Cc1c[nH]c2ccccc12)NC(=O)[C@H](Cc1c[nH]c2ccccc12)NC(=O)[C@@H](CCCCN)NC(=O)[C@H](Cc1c[nH]c2ccccc12)NC(=O)[C@H](CC(N)=O)NC(=O)[C@H](CO)NC(C)=O)C(=O)N[C@@H](Cc1ccccc1)C(=O)N[C@@H](CC(=O)O)C(N)=O
7.4% | – | Ac-SNWKWWPGI-NH2
5.4% | – | Ac-KWWPGIFD-NH2
41.1% | – | CC[C@H](C)[C@H](NC(=O)CNC(=O)[C@@H]1CCCN1C(=O)[C@H](Cc1c[nH]c2ccccc12)NC(=O)[C@H](Cc1c[nH]c2ccccc12)NC(=O)[C@H](CCCCN)NC(=O)[C@@H](Cc1c[nH]c2ccccc12)NC(=O)[C@H](CC(N)=O)NC(=O)[C@H](CO)NC(C)=O)C(=O)N[C@@H](Cc1ccccc1)C(=O)N[C@@H](CC(=O)O)C(N)=O
82.2% | 4.3 µM | Ac-SAWKWWPGIFD-NH2
83.2% | 4.4 µM | CC[C@H](C)[C@H](NC(=O)CNC(=O)[C@@H]1CCCN1C(=O)[C@H](Cc1c[nH]c2ccccc12)NC(=O)[C@H](Cc1c[nH]c2ccccc12)NC(=O)[C@H](CCCCN)NC(=O)[C@H](Cc1c[nH]c2ccccc12)NC(=O)[C@H](CC(N)=O)NC(=O)[C@@H](CO)NC(C)=O)C(=O)N[C@@H](Cc1ccccc1)C(=O)N[C@@H](CC(=O)O)C(N)=O
64.9% | 11.5 µM | CC[C@H](C)[C@H](NC(=O)[C@H](C)NC(=O)[C@@H]1CCCN1C(=O)[C@H](Cc1c[nH]c2ccccc12)NC(=O)[C@H](Cc1c[nH]c2ccccc12)NC(=O)[C@H](CCCCN)NC(=O)[C@H](Cc1c[nH]c2ccccc12)NC(=O)[C@H](CC(N)=O)NC(=O)[C@H](CO)NC(C)=O)C(=O)N[C@@H](Cc1ccccc1)C(=O)N[C@@H](CC(=O)O)C(N)=O
11.4% | – | Ac-SNWKWWP-NH2
81.2% | 2.9 µM | Ac-WKWWPGIFD-NH2
8.4% | – | CC[C@H](C)[C@H](NC(=O)CNC(=O)[C@@H]1CCCN1C(=O)[C@@H](Cc1c[nH]c2ccccc12)NC(=O)[C@H](Cc1c[nH]c2ccccc12)NC(=O)[C@H](CCCCN)NC(=O)[C@H](Cc1c[nH]c2ccccc12)NC(=O)[C@H](CC(N)=O)NC(=O)[C@H](CO)NC(C)=O)C(=O)N[C@@H](Cc1ccccc1)C(=O)N[C@@H](CC(=O)O)C(N)=O
80.7% | 4.5 µM | CC[C@H](C)[C@H](NC(=O)CNC(=O)[C@@H]1CCCN1C(=O)[C@H](Cc1c[nH]c2ccccc12)NC(=O)[C@H](Cc1c[nH]c2ccccc12)NC(=O)[C@H](CCCCN)NC(=O)[C@H](Cc1c[nH]c2ccccc12)NC(=O)[C@@H](CC(N)=O)NC(=O)[C@H](CO)NC(C)=O)C(=O)N[C@@H](Cc1ccccc1)C(=O)N[C@@H](CC(=O)O)C(N)=O
85.6% | 3.6 µM | Ac-WKWWPGIF-NH2

inhibition [1] | IC50 [2] | Compound
77.2% | 5 µM | CC[C@H](C)[C@H](NC(=O)CNC(=O)[C@@H]1CCCN1C(=O)[C@H](Cc1c[nH]c2ccccc12)NC(=O)[C@H](Cc1c[nH]c2ccccc12)NC(=O)[C@H](CCCCN)NC(=O)[C@H](Cc1c[nH]c2ccccc12)NC(=O)[C@H](CC(N)=O)NC(=O)[C@H](CO)NC(C)=O)C(=O)N[C@@H](Cc1ccccc1)C(=O)N[C@H](CC(=O)O)C(N)=O
78.2% | 6.3 µM | Ac-ANWKWWPGIFD-NH2
11.4% | – | Ac-SNWKWWPGIAD-NH2
5% | – | Ac-WWPGIFD-NH2
33.2% | – | CC[C@H](C)[C@@H](NC(=O)CNC(=O)[C@@H]1CCCN1C(=O)[C@H](Cc1c[nH]c2ccccc12)NC(=O)[C@H](Cc1c[nH]c2ccccc12)NC(=O)[C@H](CCCCN)NC(=O)[C@H](Cc1c[nH]c2ccccc12)NC(=O)[C@H](CC(N)=O)NC(=O)[C@H](CO)NC(C)=O)C(=O)N[C@@H](Cc1ccccc1)C(=O)N[C@@H](CC(=O)O)C(N)=O
78.2% | 5 µM | Ac-NWKWWPGIFD-NH2
5.9% | – | Ac-SNWKWWPG-NH2
25.7% | – | CC[C@H](C)[C@H](NC(=O)CNC(=O)[C@H]1CCCN1C(=O)[C@H](Cc1c[nH]c2ccccc12)NC(=O)[C@H](Cc1c[nH]c2ccccc12)NC(=O)[C@H](CCCCN)NC(=O)[C@H](Cc1c[nH]c2ccccc12)NC(=O)[C@H](CC(N)=O)NC(=O)[C@H](CO)NC(C)=O)C(=O)N[C@@H](Cc1ccccc1)C(=O)N[C@@H](CC(=O)O)C(N)=O
76.7% | 5 µM | CC[C@H](C)[C@H](NC(=O)CNC(=O)[C@@H]1CCCN1C(=O)[C@H](Cc1c[nH]c2ccccc12)NC(=O)[C@H](Cc1c[nH]c2ccccc12)NC(=O)[C@H](CCCCN)NC(=O)[C@H](Cc1c[nH]c2ccccc12)NC(=O)[C@H](CC(N)=O)NC(=O)[C@H](CO)NC(C)=O)C(=O)N[C@@H](Cc1ccccc1)C(=O)N[C@@H](CC(=O)O)C(N)=O
9.9% | – | Ac-SNWKWWPGAFD-NH2
-5.4% | – | Ac-SNWKAWPGIFD-NH2
57.4% | 14.6 µM | Ac-SNWKWWPGIF-NH2
67.8% | 15.6 µM | Ac-SNWKWWPGIFA-NH2
58.9% | 10 µM | Ac-SNWKWWAGIFD-NH2
16.3% | – | CC[C@H](C)[C@H](NC(=O)[C@@H](C)NC(=O)[C@@H]1CCCN1C(=O)[C@H](Cc1c[nH]c2ccccc12)NC(=O)[C@H](Cc1c[nH]c2ccccc12)NC(=O)[C@H](CCCCN)NC(=O)[C@H](Cc1c[nH]c2ccccc12)NC(=O)[C@H](CC(N)=O)NC(=O)[C@H](CO)NC(C)=O)C(=O)N[C@@H](Cc1ccccc1)C(=O)N[C@@H](CC(=O)O)C(N)=O
